# Laboratory results taken from patent publication US20100210835A1, “Mimetic Drug Delivery Systems for Release with Specific Molecular Triggers” (BOARD OF REGENTS, THE UNIVERSITY OF TEXAS SYSTEM, priority 2009, published 2010).
# What was measured:
# Type in all cases: physicochemical
# [1] = Loading of films with geraniol; settings: lactic acid-triggered films, 7 mm discs
# Description: Loading of films with and Active Agent. The active agent geraniol was used for release studies. Once dry, 7 mm discs were carefully cut out using a standard stainless steel cork borer. The discs were lifted out and placed on a clean dish. For the loading, 100 mg of geraniol was weighed out and dissolved in 100 ml of 50% ethanol:distilled water, resulting in a final concentration of 1.0 mg/ml. The mixture was vigorously mixed and sonicated for 5 minutes. In the meantime discs were arranged in a segmented plastic container and the geraniol solution gently pipetted onto the discs until they were fully covered. The container was tightly covered and left at room temperature overnight. The following day the geraniol solution was gently removed by pipette until the discs were visible. The discs were washed three times with water and placed on a clean foil and left to dry overnight.
# [2] = Release of geraniol from MIP polymers in lactic acid solutions; settings: 200 mg/dl lactic acid, 24 hours; FIG. 8
# Description: Loading of films with and Active Agent. The active agent geraniol was used for release studies. Once dry, 7 mm discs were carefully cut out using a standard stainless steel cork borer. The discs were lifted out and placed on a clean dish. For the loading, 100 mg of geraniol was weighed out and dissolved in 100 ml of 50% ethanol:distilled water, resulting in a final concentration of 1.0 mg/ml.
# The mixture was vigorously mixed and sonicated for 5 minutes. In the meantime discs were arranged in a segmented plastic container and the geraniol solution gently pipetted onto the discs until they were fully covered. The container was tightly covered and left at room temperature overnight. The following day the geraniol solution was gently removed by pipette until the discs were visible. The discs were washed three times with water and placed on a clean foil and left to dry overnight.
# Preparation of lactic acid solutions. […]
# Incubation Study—Geraniol. […] The stop clock started and samples were taken (100 ul) into HPLC autosampler vials and the concentration of geraniol present was determined by injecting onto a C18 HPLC column and monitoring at a wavelength of 195 nm.
# Assay for Geraniol. Geraniol concentration was quantified using an HPLC Diode array detector (DAD) at 195 nm. After blanking with water, samples were injected and the peak area of the geraniol peak recorded. […]
# [3] = Release of Nile Blue from MIP polymers in glucose solutions
# Description: Loading of Films with Nile Blue For Release Studies. For dye loading, 50 mg of Nile Blue was weighed out and dissolved in 100 ml of distilled water, resulting in a final concentration of 0.5 mg/ml. The mixture was vigorously mixed and sonicated for 5 minutes. In the meantime discs were arranged in a segmented plastic container and the Nile Blue solution gently pipetted onto the discs until they were fully covered. The container was covered and left at room temperature overnight.
# The following day the Nile Blue was gently removed by pipettes until the discs were visible. The discs were carefully removed and washed three times with water and then placed in a clean container and covered in water. The container was then placed on a hot plate set to 55° C. and left for three hours. The water was removed and the process repeated. At the end of six hours the discs were removed and placed on a clean foil and dried overnight at room temperature. The following day the discs were ready for study.
# Preparation of glucose solutions. Glucose (200 mg) was weighed out and dissolved in 100 ml of water, resulting in a final concentration of 200 mg/dl.
# Incubation—Nile Blue. The above solutions of glucose or lactic acid were used as triggers for Nile Blue release. 4 ml of each solution was placed into three petri dishes kept at room temperature. Stained discs were placed into each dish and the dish covered. Samples were taken (400 ul) into micro-cuvettes at specific time points and the concentration of Nile Blue present was determined by measuring the absorbance of the Nile Blue solutions at 625 nm.
Compound,loading of geraniol in MIP films [1],release of geraniol from MIP films [2] [%],"release of Nile Blue from MIP films ([3]; films moved at 365 minutes from water to 200 mg/dl glucose, FIG. 5)","release of Nile Blue from MIP films ([3]; films moved at 450 minutes from glucose solution to fresh water, FIG. 6)","release of Nile Blue from MIP films ([3]; in water, about 5 hours)","release of Nile Blue from MIP films ([3]; increasing glucose concentration, FIG. 4)"
CC(C)=CCC/C(C)=C/CO [Geraniol],approximately 145 μg per disc,~100,,,,
CC[N+](CC)=c1ccc2nc3c(cc(N)c4ccccc43)oc-2c1 [Nile Blue],,,began almost immediately,stopped almost immediately,not showed any significant release,released in increasing amounts
